Measurements: patent US10597388B2, “Pyridazinone herbicides” (FMC CORPORATION, priority 2014, dated 2020)

Legend:
Assay type in all cases: in vivo
[1] = tested on: barnyardgrass (Echinochloa crus-galli); assay: Test A greenhouse herbicide test, pre- and postemergence
Outline: (§1)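 Visual injury ratings, 0 (no effect) to 100 (complete control), versus untreated plants after roughly 10 d in a greenhouse. Compounds, formulated in a surfactant-containing non-phytotoxic solvent, were sprayed on loam–sand soil after sowing (pre) or on one- to two-leaf plants 2–10 cm tall (post).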

corn (Zea mays) = assay: as above; conditions: Postemergence; for Plant response rating, Corn: 125 g ai/ha, 0 to 100 scale where 0 is no effect and 100 is complete control; for Corn plant response rating: 500 g ai/ha, 0 to 100 scale, 0 is no effect, 100 is complete control
Outline: as §1

[2] = tested on: foxtail, giant (giant foxtail, Setaria faberii); assay: as above
Outline: as §1

kochia (Kochia scoparia) = assay: as above
Outline: as §1

[3] = tested on: pigweed (Amaranthus retroflexus); assay: as above
Outline: as §1

[4] = tested on: ragweed (common ragweed, Ambrosia elatior); assay: as above
Outline: as §1

[5] = tested on: ryegrass, Italian (Italian ryegrass, Lolium multiflorum); assay: as above
Outline: as §1

[6] = tested on: wheat (Triticum aestivum); assay: as above; conditions: Postemergence; for Plant response rating, Wheat: 125 g ai/ha, 0 to 100 scale where 0 is no effect and 100 is complete control; for Wheat plant response rating: 500 g ai/ha, 0 to 100 scale, 0 is no effect, 100 is complete control
Outline: as §1

[7] = tested on: lambsquarters (Chenopodium album); assay: Test C greenhouse herbicide test, pre- and postemergence
Outline: (§2)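 Greenhouse pots; pre-em on seeded loam:sand blend, post-em on 2–18 cm plants (1–4 leaf) in sphagnum peat/vermiculite medium. Formulation: non-phytotoxic solvent + surfactant. Read-out: visual % control (0–100) vs controls at 13–15 d.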

[8] = tested on: nutsedge, yellow (yellow nutsedge, Cyperus esculentus); assay: as above
Outline: as §2

[9] = tested on: ryegrass, Italian (Italian ryegrass, Lolium multiflorum); assay: as above
Outline: as §2

[10] = Postemergence, 125 g ai/ha, 0 to 100 scale where 0 is no effect and 100 is complete control
[11] = Postemergence, 500 g ai/ha, 0 to 100 scale, 0 is no effect, 100 is complete control
[12] = Preemergence, 125 g ai/ha, 0 to 100 scale where 0 is no effect and 100 is complete control
[13] = Preemergence, 500 g ai/ha, 0 to 100 scale, 0 no effect, 100 complete control
[14] = Postemergence, 31 g ai/ha, 0 to 100 scale (0 no effect, 100 complete control)
[15] = Postemergence, 125 g ai/ha, scale 0 to 100, 0 is no effect, 100 is complete control
[16] = Postemergence, 250 g ai/ha, scale 0 to 100, 0 no effect, 100 complete control, 13 to 15 d
[17] = Preemergence, 31 g ai/ha, scale 0 to 100, 0 is no effect, 100 is complete control
[18] = Preemergence, 62 g ai/ha, scale 0 to 100, 0 is no effect, 100 is complete control
[19] = Preemergence, 125 g ai/ha, scale 0 to 100, 0 is no effect, 100 is complete control
[20] = Preemergence, 250 g ai/ha, scale 0 to 100 (0 no effect, 100 complete control)
[21] = postemergence, 62 g ai/ha, scale 0 to 100, 0 no effect, 100 complete control
[22] = Preemergence, 500 g ai/ha, 0 to 100 scale where 0 is no effect and 100 is complete control

Cc1cc(C)c2sc(C)c(-c3c(OC(=O)OC(C)C)c(C)nn(C)c3=O)c2c1 [Compound 67]
Plant response rating, Barnyardgrass [1, 10]: 20 | Barnyardgrass plant response rating [1, 11]: 70 | Barnyardgrass plant response rating [1, 12]: 30 | Plant response rating, Barnyardgrass [1, 13]: 90 | Plant response rating, Corn (corn (Zea mays)): 0 | Corn plant response rating (corn (Zea mays)): 0 | Plant response rating, Foxtail, Giant [2, 10]: 80 | Foxtail, Giant plant response rating [2, 11]: 90 | Foxtail, Giant plant response rating [2, 12]: 80 | Plant response rating, Foxtail, Giant [2, 13]: 100 | Plant response rating, Kochia (kochia (Kochia scoparia); [10]): 20 | Kochia plant response rating (kochia (Kochia scoparia); [11]): 30 | Kochia plant response rating (kochia (Kochia scoparia); [12]): 20 | Plant response rating, Kochia (kochia (Kochia scoparia); [13]): 20 | Plant response rating, Pigweed [3, 10]: 20 | Pigweed plant response rating [3, 11]: 20 | Pigweed plant response rating [3, 12]: 90 | Plant response rating, Pigweed [3, 13]: 100 | Plant response rating, Ragweed [4, 10]: 50 | Ragweed plant response rating [4, 11]: 70 | Ragweed plant response rating [4, 12]: 80 | Plant response rating, Ragweed [4, 13]: 80 | Plant response rating, Ryegrass, Italian [5, 10]: 70 | Ryegrass, Italian plant response rating [5, 11]: 90 | Ryegrass, Italian plant response rating [5, 12]: 90 | Plant response rating, Ryegrass, Italian [5, 13]: 100 | Plant response rating, Wheat [6]: 0 | Wheat plant response rating [6]: 0 | Lambsquarters plant response rating [7, 14]: 85 | Plant response rating, Lambsquarters [7, 15]: 90 | Plant response rating, Lambsquarters [7, 16]: 100 | Plant response rating, Lambsquarters [7, 17]: 80 | Plant response rating, Lambsquarters [7, 18]: 80 | Plant response rating, Lambsquarters [7, 19]: 85 | Lambsquarters plant response rating [7, 20]: 85 | Lambsquarters plant response rating [7, 21]: 95 | Nutsedge, Yellow plant response rating [8, 14]: 65 | Plant response rating, Nutsedge, Yellow [8, 15]: 80 | Plant response rating, Nutsedge, Yellow [8, 16]: 85 | Plant response rating, Nutsedge, Yellow [8, 17]: 10 | Plant response rating, Nutsedge, Yellow [8, 18]: 20 | Plant response rating, Nutsedge, Yellow [8, 19]: 55 | Nutsedge, Yellow plant response rating [8, 20]: 70 | Nutsedge, Yellow plant response rating [8, 21]: 70 | Ryegrass, Italian plant response rating [9, 14]: 80 | Plant response rating, Ryegrass, Italian [9, 15]: 85 | Plant response rating, Ryegrass, Italian [9, 16]: 85 | Plant response rating, Ryegrass, Italian [9, 17]: 30 | Plant response rating, Ryegrass, Italian [9, 18]: 40 | Plant response rating, Ryegrass, Italian [9, 19]: 85 | Ryegrass, Italian plant response rating [9, 20]: 90 | Ryegrass, Italian plant response rating [9, 21]: 80

CCOC(=O)Oc1c(C)nn(C)c(=O)c1-c1c(C)ccc2ccccc12 [Compound 73]
Plant response rating, Barnyardgrass [1, 10]: 40 | Barnyardgrass plant response rating [1, 11]: 90 | Barnyardgrass plant response rating [1, 12]: 40 | Plant response rating, Barnyardgrass [1, 13]: 100 | Plant response rating, Corn (corn (Zea mays)): 20 | Corn plant response rating (corn (Zea mays)): 60 | Plant response rating, Foxtail, Giant [2, 10]: 90 | Foxtail, Giant plant response rating [2, 11]: 100 | Foxtail, Giant plant response rating [2, 12]: 90 | Plant response rating, Foxtail, Giant [2, 22]: 100 | Plant response rating, Kochia (kochia (Kochia scoparia); [10]): 90 | Kochia plant response rating (kochia (Kochia scoparia); [11]): 100 | Kochia plant response rating (kochia (Kochia scoparia); [12]): 50 | Plant response rating, Kochia (kochia (Kochia scoparia); [22]): 100 | Plant response rating, Pigweed [3, 10]: 100 | Pigweed plant response rating [3, 11]: 100 | Pigweed plant response rating [3, 12]: 100 | Plant response rating, Pigweed [3, 22]: 100 | Plant response rating, Ragweed [4, 10]: 90 | Ragweed plant response rating [4, 11]: 100 | Ragweed plant response rating [4, 12]: 90 | Plant response rating, Ragweed [4, 22]: 90 | Plant response rating, Ryegrass, Italian [5, 10]: 100 | Ryegrass, Italian plant response rating [5, 11]: 100 | Ryegrass, Italian plant response rating [5, 12]: 100 | Plant response rating, Ryegrass, Italian [5, 22]: 100 | Plant response rating, Wheat [6]: 40 | Wheat plant response rating [6]: 90 | Lambsquarters plant response rating [7, 14]: 90 | Plant response rating, Lambsquarters [7, 15]: 95 | Plant response rating, Lambsquarters [7, 16]: 98 | Plant response rating, Lambsquarters [7, 17]: 75 | Plant response rating, Lambsquarters [7, 18]: 70 | Plant response rating, Lambsquarters [7, 19]: 80 | Lambsquarters plant response rating [7, 20]: 90 | Lambsquarters plant response rating [7, 21]: 95 | Nutsedge, Yellow plant response rating [8, 14]: 80 | Plant response rating, Nutsedge, Yellow [8, 15]: 80 | Plant response rating, Nutsedge, Yellow [8, 16]: 90 | Plant response rating, Nutsedge, Yellow [8, 17]: 0 | Plant response rating, Nutsedge, Yellow [8, 18]: 35 | Plant response rating, Nutsedge, Yellow [8, 19]: 50 | Nutsedge, Yellow plant response rating [8, 20]: 95 | Nutsedge, Yellow plant response rating [8, 21]: 80 | Ryegrass, Italian plant response rating [9, 14]: 85 | Plant response rating, Ryegrass, Italian [9, 15]: 90 | Plant response rating, Ryegrass, Italian [9, 16]: 90 | Plant response rating, Ryegrass, Italian [9, 17]: 75 | Plant response rating, Ryegrass, Italian [9, 18]: 90 | Plant response rating, Ryegrass, Italian [9, 19]: 90 | Ryegrass, Italian plant response rating [9, 20]: 90 | Ryegrass, Italian plant response rating [9, 21]: 90
